Test results reported in publication PMC5561102, “Fusion protein analysis reveals the precise regulation between Hsp70 and Hsp100 during protein disaggregation” (Scientific Reports, 2017).

How the values were obtained:
Assay in all cases: UV difference spectrum after size exclusion chromatography
Conditions in all cases: 3 mM ATP, 55 °C 60 min incubation, pH 7.5, 5 mM MgCl2; binding stoichiometry, not an affinity
TDnaK [1] = target: T1, TDnaK (Thermus thermophilus, UniProt Q56235, K69A)
T1 construct: gene dnaK; full length, untagged (plasmid pMDK6), expressed in E. coli; C-terminus Asp615

TDnaK [2] = target: T2, TDnaK (Thermus thermophilus, UniProt Q56235, T195A)
T2 construct: gene dnaK; full length, untagged (plasmid pMDK6), expressed in E. coli; C-terminus Asp615

TDnaK [3] = target: T3, TDnaK (Thermus thermophilus, UniProt Q56235)
T3 construct: gene dnaK; full length, untagged (plasmid pMDK6), expressed in E. coli; C-terminus Asp615
T3 sequence (Q56235 whole entry): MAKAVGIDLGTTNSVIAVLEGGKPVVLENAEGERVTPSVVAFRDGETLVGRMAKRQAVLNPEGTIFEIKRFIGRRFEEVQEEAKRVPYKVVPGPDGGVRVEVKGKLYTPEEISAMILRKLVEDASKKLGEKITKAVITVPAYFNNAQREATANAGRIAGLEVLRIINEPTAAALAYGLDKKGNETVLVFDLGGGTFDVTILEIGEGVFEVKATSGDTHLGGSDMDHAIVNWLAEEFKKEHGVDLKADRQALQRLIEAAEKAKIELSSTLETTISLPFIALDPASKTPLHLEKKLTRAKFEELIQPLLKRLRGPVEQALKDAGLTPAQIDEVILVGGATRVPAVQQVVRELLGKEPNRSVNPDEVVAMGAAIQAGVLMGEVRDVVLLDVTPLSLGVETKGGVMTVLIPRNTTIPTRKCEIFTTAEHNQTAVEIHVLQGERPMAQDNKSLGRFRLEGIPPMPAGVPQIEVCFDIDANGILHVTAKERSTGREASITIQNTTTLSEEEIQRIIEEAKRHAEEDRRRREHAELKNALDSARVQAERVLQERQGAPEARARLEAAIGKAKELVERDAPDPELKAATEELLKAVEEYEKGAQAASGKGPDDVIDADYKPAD

T1 sequence (Q56235 whole entry K69A): as the sequence (Q56235 whole entry) above, with K69A counted along it
T2 sequence (Q56235 whole entry T195A): as the sequence (Q56235 whole entry) above, with T195A counted along it

SMILES: Nc1ncnc2c1ncn2[C@@H]1O[C@H](COP(=O)(O)OP(=O)(O)OP(=O)(O)O)[C@@H](O)[C@H]1O [ATP]
- bound ATP per TDnaK (TDnaK [1]): 0.89 mol/mol
- bound ATP per TDnaK (TDnaK [2]): 0.64 mol/mol
- bound ATP per TDnaK (TDnaK [3]): 0.70 mol/mol
